System: rat monocrotaline (MCT)-induced severe heart failure (pulmonary hypertension) model
Assay: Survival rate in rat monocrotaline-induced pulmonary hypertension model
Assay type: in vivo
Details: 42 days after MCT; oral 50 mg/kg × twice/day from day 7
From the text: The produced Formulation 21 (ONO-1301Lipo formulation) as a test substance was intermittently administered intravenously once weekly to a rat monocrotaline (MCT)-induced severe heart failure (pulmonary hypertension) model from day 7 of the MCT administration, and the survival rate was compared with a group in which compound (A) (ONO-1301) was repeatedly orally administered; a group in which compound (A) was intermittently administered intravenously once weekly; and, as a positive control, a group in which an ET-1 antagonist (bosentan) was orally administered. In the control group, physiological saline (vehicle) was administered once weekly by intravenous administration.
For animals, Slc: Wistar male rats, 5 weeks old at the start of the test, and 66.4 to 90.8 g at arrival (Japan SLC, Inc.) were used. Monocrotaline (hereinafter referred to as “MCT”), lot No.: SLBG1999V (Sigma-Aldrich Corporation), was administered once subcutaneously at the back of the rats at a dose of 60 mg/kg. Six days after the MCT administration, the animals were divided into groups according to the weight stratification assignment method (Table 19).

COc1ccccc1Oc1c(NS(=O)(=O)c2ccc(C(C)(C)C)cc2)nc(-c2ncccn2)nc1OCCO [Bosentan]
Survival rate (%): 30%

From US12569437B2, “Disease-site-specific liposomal formulation” (Osaka University, priority 2017, dated 2026)
